From patent US20150254400A1, “GROUPING FOR C[…] CANCER” (AGENCY FOR SCIENCE, TECHNOLOGY AND RESEARCH, priority 2012, published 2015)
“Also recorded” adds a separate entry of the source.

Legend:
gastric adenocarcinoma = test: Patient survival, surgery plus adjuvant 5-FU based therapy versus surgery alone (Kaplan-Meier, Cox regression); format: in vivo, human; details: for HR (95% CI): Multivariate Cox (treatment + stage)
Method: A study was done to determine whether there was a difference in survival among the three subtypes. In this study, cancer-specific death was considered as an event unless stated otherwise.
Data from 188 patients in the SG201 Singapore cohort for which survival information was available was analyzed.
Many of the patients in the Singapore cohort were treated with 5-FU. To investigate the effect of 5-FU treatment on patient survival, the survival of Singapore and Australian patients treated with surgery alone were compared to that of patients treated by surgery and adjuvant 5-FU based therapy.
The clinical decision on administration of 5-FU was based on multiple factors, including the patient's general health, risk of relapse (estimated largely by disease stage), treatment-related toxicities, and patient preference.
FIGS. 8A to F show Kaplan-Meier plots for surgery plus 5-FU versus surgery alone for each of the three subtypes.

[1] = tested on: gastric cancer cell lines; test: 5-FU sensitivity in vitro of gastric cancer cell lines assigned to the three subtypes by GCPred; format: cell-based
Text: It was then examined whether there are differences in 5-FU sensitivity, in vitro, between gastric cancer cell lines assigned to the three subtypes.
GCPred was first used to predict the subtypes of 28 cell lines for which 5-FU GI50 values had previously been determined.

NCI-60 cell lines = test: 5-FU sensitivity of NCI-60 cell lines classified into the three subtypes by GCPred; format: cell-based; details: metabolic versus invasive subtype NCI-60 cells, Wilcoxon rank sum test p=0.036
Text: In addition, GCPred was used to classify the NCI-60 cell lines into the three subtypes.

O=c1[nH]cc(F)c(=O)[nH]1 [5-FU, 5-fluorouracil]
Hazard Ratio (95% CI), treatment (gastric adenocarcinoma; 197 patients in SG and AU cohorts, model ~subtype * treatment + stage, 5-FU vs surgery alone (=1)): 1.437 (0.728, 2.835)
Hazard Ratio (95% CI), subtype: treatment interaction, Invasive: 5-FU (gastric adenocarcinoma; 197 patients in SG and AU cohorts, model ~subtype * treatment + stage, reference Proliferative: 5-FU (=1)): 0.722 (0.287, 1.817)
HR (95% CI) (gastric adenocarcinoma; Australian cohort, invasive subtype, 5-FU vs surgery alone (=1)): 0.222 (0.059, 0.833)
HR (95% CI) (gastric adenocarcinoma; Australian cohort, proliferative subtype, 5-FU vs surgery alone (=1)): 1.938 (0.369, 10.170)
HR (95% CI) (gastric adenocarcinoma; Singapore cohort, invasive subtype, 5-FU vs surgery alone (=1)): 1.062 (0.469, 2.407)
HR (95% CI) (gastric adenocarcinoma; Singapore cohort, proliferative subtype, 5-FU vs surgery alone (=1)): 2.105 (0.879, 5.043)
Deaths among 5-FU treated patients (gastric adenocarcinoma; Singapore cohort, metabolic subtype): no deaths
Hazard ratio (95% CI) (gastric adenocarcinoma; Univariate Cox regression, Singapore cohort, all subtypes, 5-FU vs surgery alone (=1), cancer-specific death): 1.656 (0.983, 2.788)
5-FU effect on patient survival (gastric adenocarcinoma; invasive subtype): No effect
5-FU effect on patient survival (gastric adenocarcinoma; metabolic subtype): Beneficial
Survival, Kaplan-Meier, surgery plus 5-FU versus surgery alone (gastric adenocarcinoma; metabolic-subtype patients): benefited; also recorded: better
Disease-free survival, Kaplan-Meier, 5-FU treatment compared to surgery alone (gastric adenocarcinoma; metabolic-subtype patients, log rank test p=0.025): benefited significantly
Benefit from 5-FU treatment by multivariate Cox regression (gastric adenocarcinoma; patients with invasive and proliferative subtypes): does not suggest any benefit
Survival, Kaplan-Meier, surgery plus 5-FU versus surgery alone (gastric adenocarcinoma; patients with invasive and proliferative subtypes, not adjusted for TNM stage): worse
5-FU effect on patient survival (gastric adenocarcinoma; proliferative subtype): No effect
Sensitivity to 5-FU (GI50 values previously determined) ([1]; 28 cell lines, metabolic versus proliferative subtype cells, Wilcoxon rank sum test p=1.47×10-3): significantly more sensitive
Chemosensitivity in cell lines ([1]; metabolic subtype cell lines): 5-FU
Sensitivity to 5-FU (NCI-60 cell lines): preferential sensitivity
